# Results reported in US20250230172A1 (Vanqua Bio, Inc., priority 2021, published 2025).
# Target: T1, GCase (Homo sapiens, UniProt P04062)
# T1 construct: endogenous in cells; host or cells: HeLa cells
# T1 sequence (P04062 40-536): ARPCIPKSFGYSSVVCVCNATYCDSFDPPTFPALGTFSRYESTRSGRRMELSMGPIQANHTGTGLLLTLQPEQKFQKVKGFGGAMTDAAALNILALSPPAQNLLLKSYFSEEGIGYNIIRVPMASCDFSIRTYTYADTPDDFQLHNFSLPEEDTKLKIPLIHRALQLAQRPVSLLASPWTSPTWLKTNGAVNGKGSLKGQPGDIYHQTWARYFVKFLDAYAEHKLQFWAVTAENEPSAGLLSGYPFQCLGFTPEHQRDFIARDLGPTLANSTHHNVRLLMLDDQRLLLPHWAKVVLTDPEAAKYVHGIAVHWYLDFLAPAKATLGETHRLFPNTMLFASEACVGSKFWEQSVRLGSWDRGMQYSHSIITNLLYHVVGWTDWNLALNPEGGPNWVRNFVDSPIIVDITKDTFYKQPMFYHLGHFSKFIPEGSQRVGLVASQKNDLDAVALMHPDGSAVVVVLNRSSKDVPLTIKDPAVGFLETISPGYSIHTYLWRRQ
# Assay: live cell PFB assay in HELA cells for activation of GCase
# Format: cell-based
# Procedure: Exemplary compounds were evaluated for activation of GCase in a live cell PFB assay in HELA cells (essentially as described in Ysselstein et al., “LRRK2 kinase activity regulates lysosomal glucocerebrosidase in neurons derived from Parkinson's disease patients” Nature Communications (2019) 10:5570). […] EC50 ranges: A: <10 μM; B: >10-50 μM; C: >50-100 μM; D: >100 μM.
row,Compound,EC50
1,FC(F)(F)c1ccnc(N2C[C@H]3CCN(c4cnc5cnn(C6COC6)c5n4)C[C@H]3C2)c1 (racemic) [Compound 1],< 10 µM
2,"FC(F)Cn1ncc2ncc(N3CC[C@@H]4CN(c5cccnc5C(F)(F)F)C[C@@H]4C3)nc21 (racemic) [Compound 2, rac-3-[(3aR,7aS)-5-[1-(2,2-difluoroethyl)-1H-pyrazolo[3,4-b]pyrazin-6-yl]-octahydro-1H-pyrrolo[3,4-c]pyridin-2-yl]-2-(trifluoromethyl)pyridine]",< 10 µM
3,FC(F)Cn1ncc2ncc(N3CC[C@@H]4CN(c5cc(C(F)(F)F)ccn5)C[C@@H]4C3)nc21 (racemic) [Compound 3],< 10 µM
4,"FC(F)Cn1ncc2ncc(N3C[C@H]4CCN(c5cccnc5C(F)(F)F)C[C@H]4C3)nc21 (racemic) [Compound 4, rac-3-[(3aR,7aR)-2-[1-(2,2-difluoroethyl)-1H-pyrazolo[3,4-b]pyrazin-6-yl]-octahydro-1H-pyrrolo[3,4-c]pyridin-5-yl]-2-(trifluoromethyl)pyridine]",< 10 µM
5,FC(F)Cn1ncc2ncc(N3CC[C@@H]4CN(c5ncccc5C(F)(F)F)C[C@@H]4C3)nc21 (racemic) [Compound 5],< 10 µM
6,FC(F)Cn1ncc2ncc(N3C[C@H]4CCN(c5cccc(C(F)(F)F)n5)C[C@H]4C3)nc21 (racemic) [Compound 6],< 10 µM
7,FC(F)Cn1ncc2ncc(N3CC[C@@H]4CN(c5cccc(C(F)(F)F)n5)C[C@@H]4C3)nc21 (racemic) [Compound 7],< 10 µM
8,FC(F)Cn1ncc2ncc(N3CC[C@@H]4CN(c5ccc(C(F)(F)F)cn5)C[C@@H]4C3)nc21 (racemic) [Compound 8],< 10 µM
9,"O=C(c1ccc2ccn(CC3COC3)c2c1)N1CC[C@@H]2CN(c3cc(C(F)(F)F)ccn3)C[C@@H]2C1 (racemic) [Compound 9, rac-6-[(3aR,7aS)-2-[4-(trifluoromethyl)pyridin-2-yl]-octahydro-1H-pyrrolo[3,4-c]pyridine-5-carbonyl]-1-[(oxetan-3-yl)methyl]-1H-indole]",10 to 50 µM
10,"FC(F)Cn1ncc2ncc(N3CC[C@@H]4CN(c5cncc(C(F)(F)F)c5)C[C@@H]4C3)nc21 (racemic) [Compound 10, rac-3-[(3aR,7aS)-5-[1-(2,2-difluoroethyl)-1H-pyrazolo[3,4-b]pyrazin-6-yl]-octahydro-1H-pyrrolo[3,4-c]pyridin-2-yl]-5-(trifluoromethyl)pyridine]",10 to 50 µM
11,FC(F)Cn1ncc2ncc(N3C[C@H]4CCN(c5cc(C(F)(F)F)ccn5)C[C@H]4C3)nc21 (racemic) [Compound 11],10 to 50 µM
12,"FC(F)Cn1ncc2ncc(N3CC[C@@H]4CN(c5ccc(C(F)(F)F)nc5)C[C@@H]4C3)nc21 (racemic) [Compound 12, rac-5-[(3aR,7aS)-5-[1-(2,2-difluoroethyl)-1H-pyrazolo[3,4-b]pyrazin-6-yl]-octahydro-1H-pyrrolo[3,4-c]pyridin-2-yl]-2-(trifluoromethyl)pyridine]",10 to 50 µM
13,FC(F)(F)Cn1ncc2ncc(N3CC[C@@H]4CN(c5cc(C(F)(F)F)ccn5)C[C@@H]4C3)nc21 (racemic) [Compound 13],10 to 50 µM
14,"FC(F)Cn1ncc2ncc(N3C[C@H]4CCN(c5cncc(C(F)(F)F)c5)C[C@H]4C3)nc21 (racemic) [Compound 14, rac-3-[(3aR,7aR)-2-[1-(2,2-difluoroethyl)-1H-pyrazolo[3,4-b]pyrazin-6-yl]-octahydro-1H-pyrrolo[3,4-c]pyridin-5-yl]-5-(trifluoromethyl)pyridine]",10 to 50 µM

# Further lines, results first:
row,EC50,Compound
1,10 to 50 µM,"FC(F)Cn1ncc2ncc(N3CC[C@@H]4CN(c5cnccc5C(F)(F)F)C[C@@H]4C3)nc21 (racemic) [Compound 15, rac-3-[(3aR,7aS)-5-[1-(2,2-difluoroethyl)-1H-pyrazolo[3,4-b]pyrazin-6-yl]-octahydro-1H-pyrrolo[3,4-c]pyridin-2-yl]-4-(trifluoromethyl)pyridine]"
2,10 to 50 µM,"O=C(c1ccc2ccn(C3COC3)c2c1)N1CC[C@@H]2CN(c3cc(C(F)(F)F)ccn3)C[C@@H]2C1 (racemic) [Compound 16, rac-6-[(3aR,7aS)-2-[4-(trifluoromethyl)pyridin-2-yl]-octahydro-1H-pyrrolo[3,4-c]pyridine-5-carbonyl]-1-(oxetan-3-yl)-1H-indole]"
3,10 to 50 µM,FC(F)Cn1ncc2ncc(N3C[C@H]4CCN(c5ncccc5C(F)(F)F)C[C@H]4C3)nc21 (racemic) [Compound 17]
4,10 to 50 µM,FC(F)Cn1ncc2ncc(N3C[C@H]4CCN(c5ccc(C(F)(F)F)cn5)C[C@H]4C3)nc21 (racemic) [Compound 18]
5,> 100 µM,"FC(F)(F)c1ccnc(N2C[C@H]3CCN(c4cncc(-c5nncs5)n4)C[C@H]3C2)c1 (racemic) [Compound 19, rac-2-[(3aR,7aS)-2-[4-(trifluoromethyl)pyridin-2-yl]-octahydro-1H-pyrrolo[3,4-c]pyridin-5-yl]-6-(1,3,4-thiadiazol-2-yl)pyrazine]"
6,10 to 50 µM,"FC(F)Cn1ncc2ncc(N3C[C@H]4CCN(c5ccc(C(F)(F)F)nc5)C[C@H]4C3)nc21 (racemic) [Compound 20, rac-5-[(3aR,7aR)-2-[1-(2,2-difluoroethyl)-1H-pyrazolo[3,4-b]pyrazin-6-yl]-octahydro-1H-pyrrolo[3,4-c]pyridin-5-yl]-2-(trifluoromethyl)pyridine]"
7,< 10 µM,"FC(F)Cn1ncc2ncc(N3CC[C@@H]4CN(c5ccnc(C(F)(F)F)c5)C[C@@H]4C3)nc21 (racemic) [Compound 21, rac-4-[(3aR,7aS)-5-[1-(2,2-difluoroethyl)-1H-pyrazolo[3,4-b]pyrazin-6-yl]-octahydro-1H-pyrrolo[3,4-c]pyridin-2-yl]-2-(trifluoromethyl)pyridine]"
8,< 10 µM,"FC(F)Cn1ncc2ncc(N3C[C@H]4CCN(c5ccncc5C(F)(F)F)C[C@H]4C3)nc21 (racemic) [Compound 22, rac-4-[(3aR,7aR)-2-[1-(2,2-difluoroethyl)-1H-pyrazolo[3,4-b]pyrazin-6-yl]-octahydro-1H-pyrrolo[3,4-c]pyridin-5-yl]-3-(trifluoromethyl)pyridine]"
9,10 to 50 µM,"FC(F)Cn1ncc2ncc(N3C[C@H]4CCN(c5ccnc(C(F)(F)F)c5)C[C@H]4C3)nc21 (racemic) [Compound 23, rac-4-[(3aR,7aR)-2-[1-(2,2-difluoroethyl)-1H-pyrazolo[3,4-b]pyrazin-6-yl]-octahydro-1H-pyrrolo[3,4-c]pyridin-5-yl]-2-(trifluoromethyl)pyridine]"
10,10 to 50 µM,"FC(F)Cn1ncc2ncc(N3C[C@H]4CCN(c5cnccc5C(F)(F)F)C[C@H]4C3)nc21 (racemic) [Compound 24, rac-3-[(3aR,7aR)-2-[1-(2,2-difluoroethyl)-1H-pyrazolo[3,4-b]pyrazin-6-yl]-octahydro-1H-pyrrolo[3,4-c]pyridin-5-yl]-4-(trifluoromethyl)pyridine]"
11,> 100 µM,FC(F)Cn1ncc2ncc(N3CC[C@@H]4CN(c5ccncc5C(F)(F)F)C[C@@H]4C3)nc21 (racemic) [Compound 25]
12,> 100 µM,"FC(F)Cn1ncc2ncc(N3C[C@@H]4CN(c5cc(C(F)(F)F)ccn5)C[C@H]4C3)nc21 (racemic) [Compound 44, rac-2-[(3aR,6aR)-5-[1-(2,2-difluoroethyl)-1H-pyrazolo[3,4-b]pyrazin-6-yl]-octahydropyrrolo[3,4-c]pyrrol-2-yl]-4-(trifluoromethyl)pyridine]"
13,50 to 100 µM,"FC(F)Cn1ncc2ncc(N3C[C@@H]4CN(c5cccc(C(F)(F)F)n5)C[C@H]4C3)nc21 (racemic) [Compound 46, rac-2-[(3aR,6aR)-5-[1-(2,2-difluoroethyl)-1H-pyrazolo[3,4-b]pyrazin-6-yl]-octahydropyrrolo[3,4-c]pyrrol-2-yl]-6-(trifluoromethyl)pyridine]"
14,10 to 50 µM,"FC(F)Cn1ncc2ncc(N3C[C@@H]4CN(c5ccc(C(F)(F)F)nc5)C[C@H]4C3)nc21 (racemic) [Compound 48, rac-5-[(3aR,6aR)-5-[1-(2,2-difluoroethyl)-1H-pyrazolo[3,4-b]pyrazin-6-yl]-octahydropyrrolo[3,4-c]pyrrol-2-yl]-2-(trifluoromethyl)pyridine]"
15,< 10 µM,"FC(F)Cn1ncc2ncc(N3C[C@@H]4CN(c5cccnc5C(F)(F)F)C[C@H]4C3)nc21 (racemic) [Compound 50, rac-3-[(3aR,6aR)-5-[1-(2,2-difluoroethyl)-1H-pyrazolo[3,4-b]pyrazin-6-yl]-octahydropyrrolo[3,4-c]pyrrol-2-yl]-2-(trifluoromethyl)pyridine]"
16,10 to 50 µM,"O=C1[C@@H]2CN(c3cc(C(F)(F)F)ccn3)C[C@@H]2CN1c1cnc2cnn(CC(F)F)c2n1 (racemic) [Compound 55, rac-(3aR,6aS)-2-[1-(2,2-difluoroethyl)-1H-pyrazolo[3,4-b]pyrazin-6-yl]-5-[4-(trifluoromethyl)pyridin-2-yl]-octahydropyrrolo[3,4-c]pyrrol-1-one]"
